The target in series [1] is FL nsP2 (Chikungunya virus, UniProt Q8JUX6, C1333A). The following applies: for full-length nsP2 Vmax: 150 nM nsP2 (peptide 2) or 2 μM nsP2 (peptide 3); for Km: read-out: FL nsP2 Km; for Km / FL nsP2 kcat: substrate peptide.
The target of series [2] is nsP2pro (Chikungunya virus, UniProt Q8JUX6). The following applies: for nsP2pro Vmax: 150 nM nsP2pro (peptide 2) or 2 μM nsP2pro (peptide 3); for Km: read-out: nsP2pro Km; for Km / nsP2pro kcat: substrate peptide.
Series [3] concerns the target T1, nsP2 protease (Chikungunya virus, UniProt Q8JUX6).
T1 construct: expressed in transfected cells; host or cells: HEK293T (the results text says HEK293), transient co-transfection in pcDNA3.1(+)
T1 sequence (Q8JUX6 755-1333 limits assumed): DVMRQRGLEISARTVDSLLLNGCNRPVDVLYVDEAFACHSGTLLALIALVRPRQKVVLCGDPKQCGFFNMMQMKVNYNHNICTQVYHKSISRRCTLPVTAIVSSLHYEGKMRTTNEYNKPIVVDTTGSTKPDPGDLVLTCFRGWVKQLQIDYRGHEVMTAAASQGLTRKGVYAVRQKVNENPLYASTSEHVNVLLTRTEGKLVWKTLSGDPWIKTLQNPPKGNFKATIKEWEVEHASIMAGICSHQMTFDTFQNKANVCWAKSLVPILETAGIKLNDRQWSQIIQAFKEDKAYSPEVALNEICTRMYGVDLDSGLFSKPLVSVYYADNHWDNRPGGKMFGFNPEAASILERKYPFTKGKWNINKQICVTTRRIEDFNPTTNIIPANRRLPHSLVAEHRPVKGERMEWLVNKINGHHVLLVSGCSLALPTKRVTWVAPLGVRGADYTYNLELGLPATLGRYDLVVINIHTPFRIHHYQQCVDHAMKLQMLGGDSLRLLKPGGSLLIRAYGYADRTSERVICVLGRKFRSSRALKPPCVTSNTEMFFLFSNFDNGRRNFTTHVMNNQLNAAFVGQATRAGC
Kind of series: cell-based. It counts as cell-based. The following applies: for Emax: HEK293, read-out: Cell-based % Efficacy.

Series [4] deals with CHIKV nsP2pro (Chikungunya virus, UniProt Q8JUX6). Kind of series: FRET-based nsP2pro proteolytic assay with peptide 2 (nsp3/4 site), 1,536-well qHTS. The format is biochemical. As to conditions: for selectivity for nsP2pro versus Papain, hFurin and HCV NS3-4A: based on biochemical counterscreens; for Emax: read-out: Enzymatic % Efficacy; for inhibitory activity against CHIKV nsP2: biochemical assays. A general note: qHTS replaces the single test concentration by a dilution series.

In series [5] the test system is CHIKV 181/25 vaccine strain. Description: CHIKV181/25 infection assay in SNB-19 cells, high-content immunofluorescence.
Series [6] concerns HCV NS3-4A.
Series [7] in a line: CellTiter-Glo cell viability assay of SNB19 cells. The format is cell-based, human. As to conditions: human, SNB19 cells. As for the experimental part: Cells were harvested in growth media and dispensed (5 µL /1,000 cells/well) onto 1536-well white plates (Aurora #EWB041000A) using a Multidrop Combi. Control and test compounds were added (25 nL) using an Echo 650 liquid handler. Plates were incubated for 48 h at 37 °C and 5% CO2 and then equilibrated to room temperature prior to addition of 4 µL /well of CellTiter-Glo (Promega) using a Multidrop Combi. Plates were subsequently incubated for 15 min at room temperature and centrifuged for 1 min at 1000 rpm. Luminescence was read on a ViewLux imager equipped with clear filters.
In general terms: In ATP-based viability assays light output follows the ATP content of the culture.

Series [8] concerns the target human Furin (Homo sapiens, UniProt P09958). Description: human Furin FRET selectivity counterscreen. The format is biochemical. On the technique in general: The purpose of a counterscreen is to sort out artefacts and off-target activity.
The target of series [9] is Papain (Carica papaya, UniProt P00784).
Chain of Papain (P00784 134-345): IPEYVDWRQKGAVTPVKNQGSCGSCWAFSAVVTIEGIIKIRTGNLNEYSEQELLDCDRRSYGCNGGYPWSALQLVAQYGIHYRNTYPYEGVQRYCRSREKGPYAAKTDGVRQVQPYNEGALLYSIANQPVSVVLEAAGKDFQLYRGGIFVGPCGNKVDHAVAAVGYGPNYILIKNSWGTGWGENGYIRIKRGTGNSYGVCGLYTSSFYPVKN
The mark [10] stands for this setting: nsP2pro biochemical assay, 13 cell-active hits.
The mark [11] stands for this setting: nsP2pro biochemical assay, 13 cell-active hits, read-out: Enzymatic IC50.

“Also recorded” adds a separate entry of the source. Where two headings read alike, the source gives them in different places.

Chain of human Furin (P09958 108-794): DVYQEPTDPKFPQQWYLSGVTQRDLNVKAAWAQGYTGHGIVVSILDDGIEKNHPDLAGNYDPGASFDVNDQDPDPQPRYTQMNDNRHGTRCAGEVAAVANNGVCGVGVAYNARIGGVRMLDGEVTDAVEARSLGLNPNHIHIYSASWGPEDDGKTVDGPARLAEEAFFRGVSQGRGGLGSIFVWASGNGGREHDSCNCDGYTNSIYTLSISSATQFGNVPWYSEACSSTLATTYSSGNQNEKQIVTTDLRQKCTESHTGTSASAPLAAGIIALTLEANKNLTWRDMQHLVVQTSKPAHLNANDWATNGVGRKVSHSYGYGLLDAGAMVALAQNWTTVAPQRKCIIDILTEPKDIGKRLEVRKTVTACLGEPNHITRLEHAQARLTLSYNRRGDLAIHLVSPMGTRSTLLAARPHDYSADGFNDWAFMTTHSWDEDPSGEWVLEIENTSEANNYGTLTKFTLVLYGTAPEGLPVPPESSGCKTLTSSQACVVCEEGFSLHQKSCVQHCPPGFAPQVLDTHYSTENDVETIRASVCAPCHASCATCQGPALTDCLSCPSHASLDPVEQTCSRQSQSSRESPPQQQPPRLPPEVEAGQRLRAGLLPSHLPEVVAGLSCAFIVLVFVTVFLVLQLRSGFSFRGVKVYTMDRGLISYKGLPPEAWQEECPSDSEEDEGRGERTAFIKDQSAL

The Km is the substrate concentration at which the rate is half of its maximum. Take “5-TAMRA-DELRLDRAGGYIFSS-K-QSY7 [Peptide 2]”: in series [1], the “full-length nsP2 Vmax” value worked out at 0.2 µM/min, the Km came out at 1.1 µM and the “FL nsP2 kcat” value turned out to be 167.2 ± 10.4 s⁻¹. Also, in series [2], the “nsP2pro Vmax” value was determined as 0.26 µM/min, the Km turned out to be 6.3 µM and the nsP2pro kcat is listed as 214.2 ± 13.1 x 10^-4 sec^-1.
The AC50 is the midpoint of the concentration-response curve, whichever way the signal moves. The term IC50 denotes the point on the concentration scale where inhibition reaches its midpoint. As for `Nc1nc2c(s1)CCN(Cc1ccc(Cl)cc1)CC2` [B-HT 958], in series [3], the activity was half-maximal at 0.23 µM (AC50) and the Emax is 114%. For the same molecule, in [4], the IC50 was 7.9 µM; the “selectivity for nsP2pro versus Papain, hFurin and HCV NS3-4A” value (from here on “selectivity for nsP2pro versus Papain”) was “specific to nsP2pro”; the Emax was -62.1%.
With `O=C(O[C@@H]1Cc2c(O)cc(O)cc2O[C@@H]1c1cc(O)c(O)c(O)c1)c1cc(O)c(O)c(O)c1` [EGCG, Epigallocatechin gallate], the “effect on CHIKV infection” value in series [5] (SNB-19 cells) is “strongly prevented CHIKV infection”. Further, the “effect on Nluc reporter signal in cellular nsp2 proteolytic assay” value in series [3] is “did not have an effect”. The “inhibitory activity against CHIKV nsP2” value in [4] is reported as “inhibited nsp2pro activity in vitro”.
With `Nc1ccn([C@@H]2O[C@H](CO)[C@@H](O)C2(F)F)c(=O)n1` [Gemcitabine], in series [5] (SNB-19 cells, infection inhibition control), the “concentrations showing consistent CHIKV inhibition” value was “under 1 µM”.
For the molecule `C[C@H](N)[C@H](O)c1ccc(O)c(O)c1` [Levonordefrin], the “activity against HCV NS3-4A” value in series [6] is given as “also inhibited”. In series [3], the activity was half-maximal at 0.4 µM (AC50) and the Emax was 71.5%. In addition, in [4], it took 7.7 µM to reach half-maximal inhibition (IC50); the “selectivity for nsP2pro versus Papain” value is “not selective”; the Emax is -74.9%.
For the molecule `CCOc1ccc(NC(=O)c2c(NC(=O)Cc3ccccc3)sc3c2CCCCC3)cc1` [NCGC00098557], in series [3], the “Cell-based % Efficacy” value came out at 101.3%. In addition, in [3] (read-out: Cell-based AC50), the AC50 was 12.9 µM. Besides, the “Enzymatic % Efficacy” value in series [4] (setting [10]) is given as -80.1%. Moreover, the IC50 in series [4] (setting [11]) amounted to 7.9 µM.
On to `CCCS(=O)(=O)c1ncc(Cl)c(C(=O)N(Cc2ccccc2)Cc2ccco2)n1` [NCGC00115102], for which the “selectivity for nsP2pro versus Papain” value in series [4] is listed as “specific to nsP2pro”.
For the molecule `O=c1oc2c3c(ccc2c2ccccc12)OCN(Cc1ccc(Cl)cc1)C3` [NCGC00116366], in series [3], the AC50 came to 36.5 µM and the Emax turned out to be 309%. In series [4], it took 4.5 µM to reach half-maximal inhibition (IC50) and the Emax was -114%.
Turning to `O=c1oc2c3c(ccc2c2ccccc12)OCN(Cc1ccccc1Cl)C3` [NCGC00116374], in series [3], the AC50 came to 14.5 µM and the Emax amounted to 112%. In series [4], 4 µM corresponded to half-maximal inhibition (IC50); the “selectivity for nsP2pro versus Papain” value is “specific to nsP2pro”; the Emax was -103%.
Regarding `Cc1cccc(C(=O)Nc2ccc(N3CCN(c4ccc(F)cc4)CC3)c(C(=O)O)c2)c1` [NCGC00137618], in [3], the “Cell-based % Efficacy” value turned out to be 55.5%. The AC50 in series [3] (read-out: Cell-based AC50) amounted to 32.6 µM. Besides, the “Enzymatic % Efficacy” value in series [4] (setting [10]) is reported as -83%. The IC50 in series [4] (setting [11]) worked out at 10 µM.
For `Cc1ccc(OCCn2c(CCNC(=O)c3ccccc3N)nc3ccccc32)cc1` [NCGC00241881], the “Cell-based % Efficacy” value in series [3] stood at 179%. Moreover, the AC50 in series [3] (read-out: Cell-based AC50) is greater than 50 µM. Also, in series [4], the “selectivity for nsP2pro versus Papain” value is reported as “not selective”. Also, the “Enzymatic % Efficacy” value in series [4] (setting [10]) is recorded as -106.1%. For the same molecule, the IC50 in [4] (setting [11]) is 1.1 µM.
With `Cc1cccc(-c2noc([C@@H]3Cc4nc[nH]c4CN3C(=O)NC3CCCCC3)n2)c1` [NCGC00400417], in series [3], the “Cell-based % Efficacy” value is recorded as 75.7%. For the same molecule, the AC50 in [3] (read-out: Cell-based AC50) was found to be 47.2 µM. Also, in series [4], the “selectivity for nsP2pro versus Papain” value was “not selective”. The “Enzymatic % Efficacy” value in series [4] (setting [10]) is -107.3%. For the same molecule, the IC50 in [4] (setting [11]) came to 2.1 µM.
Regarding `COc1cccc(C(=O)CCN[C@@H](C)[C@H](O)c2ccccc2)c1` [Oxyfedrine], in series [3], half-maximal activity (AC50) was put at 2.6 µM and the Emax is 60.3%. Moreover, in [4], the IC50 came to 1.3 µM; the “selectivity for nsP2pro versus Papain” value is “selective hits; also recorded: specific to nsP2pro”; the Emax is -88.6%.
For the molecule `C#CC(=O)N(c1ccc(OC)cc1OC)C(C(=O)NCC(=O)OCC)c1cccs1` (stereo not shown) [PACMA 31], in series [4], the “selectivity for nsP2pro versus Papain” value is recorded as “selective hits”.
The term CC50 denotes the concentration at which the toxic effect on the cells reaches its halfway point. The low end stands for harm at low concentration, the high end for better tolerance by the cells. For `C/C(=N\NC(=N)N)c1cc(NC(=O)CCCCCCCCC(=O)Nc2cc(/C(C)=N/NC(=N)N)cc(/C(C)=N/NC(=N)N)c2)cc(/C(C)=N/NC(=N)N)c1` [Semapimod], in [6], the “activity against HCV NS3-4A” value is listed as “also inhibited”. For the same molecule, the IC50 in [5] (Chikungunya virus, SNB-19, 44 h, read-out: IC50, prevention of CHIKV infection) was determined as 1.6 µM. In addition, the “potency on CHIKV infection relative to effect on cell viability” value in [5] (IC50 infection vs CC50 SNB19) is “> tenfold”. Besides, in series [3], half-maximal activity (AC50) was put at 2.2 µM and the Emax is 137%. The molecule further returned a CC50 at 48 h in series [7] of 20.6 µM. Further, in series [4], the midpoint of inhibition, the IC50, lay at 6.3 µM; the “selectivity for nsP2pro versus Papain” value is on record as “not selective”; the Emax is -106%. Moreover, the “activity against Furin” value in series [8] is “weak activity”.
For the molecule `CCC[C@H](NC(=O)[C@@H]1[C@H]2CCC[C@H]2CN1C(=O)[C@@H](NC(=O)[C@@H](NC(=O)c1cnccn1)C1CCCCC1)C(C)(C)C)C(=O)C(=O)NC1CC1` [Telaprevir], the “activity against HCV NS3-4A” value in [6] is on record as “potently inhibiting; also recorded: also inhibited”. Besides, in [3], the AC50 is 31.6 µM and the Emax was determined as 213%. In addition, half-maximal cytotoxicity in [7] (CC50 at 48 h) was put at 11.6 µM. Besides, in [4], half-maximal inhibition (IC50) was put at 3.5 µM; the “selectivity for nsP2pro versus Papain” value is “not selective”; the Emax is -123%. The “activity against Papain” value in series [9] was “potently inhibiting”.
For the molecule `COC(=O)CC[C@H](NC(=O)[C@H](CC(=O)OC)NC(=O)OCc1ccccc1)C(=O)N[C@H](C(=O)N[C@@H](CC(=O)OC)C(=O)CF)C(C)C` [Z-DEVD-FMK], the “inhibitory activity against CHIKV nsP2” value in series [4] is recorded as “did not identify”.
With `CC(NC(=O)[C@H](Cc1ccccc1)NC(=O)OCc1ccccc1)C(=O)CF` (stereo partly shown) [Z-FA-FMK], the “inhibitory activity against CHIKV nsP2” value in [4] was “minimal inhibitory activity”. Further, the “activity against Papain” value in [9] is listed as “potently inhibiting”.
In the case of `CC(C)N(CCC(=O)c1ccc2ccccc2c1)Cc1ccccc1` [ZM39923], in series [4], the “selectivity for nsP2pro versus Papain” value is “selective hits”.
As for `CCCCN(CCCC)C(=S)[S-].CCCCN(CCCC)C(=S)[S-].[Zn+2]` [Zinc dibutyldithiocarbamate], in [6], the “activity against HCV NS3-4A” value is recorded as “either weak or had no effect”. Also, the “effect on CHIKV infection” value in series [5] (SNB-19 cells) is given as “difficult to distinguish from cell toxicity”. Besides, the “inhibitory activity against CHIKV nsP2” value in [4] is listed as “potent inhibitor”. For the same molecule, the “activity against Furin” value in series [8] is on record as “either weak or had no effect”. In [9], the “activity against Papain” value is on record as “potent inhibitor”.
Regarding TMR-DELRLDRAGC/APSYR-K-QSY7 [Peptide 3], in series [1], the “full-length nsP2 Vmax” value turned out to be 0.38 µM/min, the Km came to 37.5 µM and the “FL nsP2 kcat” value was found to be 32.1 ± 2.1 s⁻¹. For the same molecule, in series [2], the “nsP2pro Vmax” value came out at 1.03 µM/min, the Km amounted to 81.9 µM and the nsP2pro kcat is reported as 85.5 ± 4.1 x 10^-4 sec^-1.

(Values after paper PMC12480751, “A quantitative high-throughput screening pipeline to identify small molecule inhibitors of Chikungunya nsP2 protease” (Scientific Reports, 2025).)
